“And” between values parts separate entries of the source, which are not always exact repeats. Equal values may be shown once.

Experiment [1] concerns the target T1, Cathepsin L (Homo sapiens, UniProt P07711).
T1 construct: host or cells: MDA-MB-231 cells
As to the kind of experiment: Cathepsin L inhibition assay in MDA-MB-231 cells (Magic Red). The format is cell-based. Particulars: for Cathepsin Activity (%), single technical replicates: normalized to 0.5% DMSO + Magic Red control, biological replicates 1 and 2. As to the method:
Phan et al. Electronic SupplementaryInformation
Cell Culture & Cathepsin L Inhibition Assays in MDA -MB-231 Cells
MDA-MB-231 cells (ATCC, #HBT-26) were seeded at 1 x 10^5/well in a black, 24-well, TC-treated plate (Corning). Cells were cultured in 400 µL media per well containing DMEM (Corning), 10% Fetal Bovine Serum (FBS; Atlanta Biologicals), and 1% Penicillin/Streptomycin (Gibco) at 37 °C in 5% CO2. After 48 hours, the cells in each well were treated with 400 µL fresh media containing either 0.5 % DMSO (sterile filtered; Sigma Aldrich), 20 µM SID 26681509 (a known Cts L inhibitor; Tocris), 10 µM E-64 (a known cell-permeable pan cathepsin inhibitor; Tocris), or 50 µM
RS1A. Cathepsin L activity in MDA-MB-231 cells were then evaluated using ICT’s Magic Red TM cathepsin-L substrate, MR-(FR) 2, according to the manufacturer’s protocol (Immunochemistry Technologies, LLC). After incubating the cells for 24 hours in the experimental conditions, 16 µL sterile Milli-Q H 2O (for the unstained cell controls) or 16 µL 26X Magic Red staining solution was added to each well, and the 24-well plate was covered with foil for 60 minutes in a 37°C incubator with 5% CO2. The media was removed from the cell monolayer surface and the cells were rinsed Dulbecco’s phosphate-buffered saline containing Mg 2+ and Ca2+ (DPBS; Corning) (2 x 500 µL DPBS/well with 1 min/rinse). The cells were then immediately visualized at 20X magnification with an Olympus CKX53 microscope with a Reflected Light Fluorescence Illuminator equipped with a green 530-550 nm exciter filler, 570 nm dichroic mirror , and a long pass 575 nm emission/barrier filter. Images were taken by Olympus EP50 camera via the Olympic EP app on an iPhone XR. Positive cells stained with Magic Red would appear red with more brightly stained vacuoles and lysosomes. […]
Cell fluorescence from raw images was analyzed using ImageJ -Fiji. The color images were first split into RGB channels; all Red-channel images were then quantified for integrated fluorescence density across the entire images at the same threshold. […]

Experiment [2] concerns Cts L. Set-up: method as in earlier work. As to conditions: 10 µM, 24-hour treatment; ref 20 (ESI); cited from earlier work.
The subject of experiment [3] is SARS-CoV-2 pseudovirus. Further details: method as in PMID 32221306. As to conditions: HEK 293/hACE2 cells; cited from earlier work.

T1 sequence (P07711 114-333): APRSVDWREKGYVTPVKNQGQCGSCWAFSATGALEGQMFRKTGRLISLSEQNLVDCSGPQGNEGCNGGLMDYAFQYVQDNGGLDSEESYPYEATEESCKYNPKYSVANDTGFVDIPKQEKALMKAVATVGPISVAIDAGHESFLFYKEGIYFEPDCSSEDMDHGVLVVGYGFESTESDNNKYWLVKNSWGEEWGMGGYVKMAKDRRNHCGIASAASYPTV

For the molecule `CC(C)C[C@H](NC(=O)[C@H]1O[C@@H]1C(=O)O)C(=O)NCCCCN=C(N)N` [E-64], the “Reduction of Cts L activity in MDA-MB-231 cells” value in experiment [1] (10 µM, 24 hours) was 32%; in experiment [2], 30-40%. In addition, in experiment [1] (10 uM, 10 µM), the “Cathepsin Activity (%), single technical replicates” value is 74.2204% and 67.3402% and 72.3857% and 56.9211% and 49.1973% and 90.0663%.
Regarding `CCc1ccccc1NC(=O)CSC(=O)NNC(=O)[C@H](Cc1c[nH]c2ccccc12)NC(=O)OC(C)(C)C` [SID 26681509], the “Cathepsin Activity (%), single technical replicates” value in experiment [1] (20 uM, listed as SID, 20 µM) was 93.8537% and 84.7857% and 75.9763% and 71.3834% and 62.7105% and 65.0709%. Moreover, the “Decrease of SARS-CoV-2 pseudovirus entry” value in experiment [3] is recorded as “more than 76%”.

Values taken from publication PMC8901119 (Chemical Science, 2021).
